Assay results reported in patent US11702422B2, “Imidazopyridazines as modulators of IL-17” (Janssen Pharmaceutica NV, priority 2020, dated 2023).

Columns and labels:
[1] = target: IL-17A(FLAG-Tagged): IL-17RA(His-Tagged) (Homo sapiens, UniProt Q16552, K93Q); experiment: IL-17A(FLAG-Tagged): IL-17RA(His-Tagged) Binding Disruption Eu-HTRF Assay; conditions: IL-17A/IL-17RA binding disruption, simple average if tested more than once
Outline: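 IC50 comes from a one-site competition fit of the HTRF 665/620 nm ratio. Compound dilutions (2-fold, 22 points) were held 1 h rt with FLAG-tagged IL-17A dimer, then His-tagged IL-17RA plus Eu-cryptate anti-FLAG and D2 anti-His antibodies were added for 2 h rt.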

[2] = test system: IL-17A-induced G-CSF production in human normal keratinocyte (NHK); experiment: NHK Assay: IL-17A-induced G-CSF production in human normal keratinocytes; assay type: cell-based; conditions: adult normal human keratinocytes, IL-17A 5 ng/mL, 24 h, simple average if tested more than once
Outline: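 Adult NHK, 3000-4000 cells/well; rhIL-17A + titrated cpd preincubated 1 h rt, then onto cells. Final: IL-17A 5 ng/mL, DMSO 0.2%, 5% FBS. 24 h, 37° C. G-CSF in supernatant by HTRF vs standard curve; IC50. Viability by CellTiter-Glo vs DMSO.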

Chain of UniProt Q16552 (Q16552 with tags, fused parts or gaps K93Q): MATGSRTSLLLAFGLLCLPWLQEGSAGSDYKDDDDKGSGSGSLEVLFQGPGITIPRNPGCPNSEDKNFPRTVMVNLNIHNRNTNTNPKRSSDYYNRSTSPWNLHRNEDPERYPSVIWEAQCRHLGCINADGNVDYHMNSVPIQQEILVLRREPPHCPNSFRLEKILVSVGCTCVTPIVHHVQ

SMILES	IC50 [1] [nM]	IC50 [2] [nM]	IC50 ([2]; Homo sapiens, Keratinocyte) [nM]
Cc1nocc1C(=O)N[C@H](c1cn2ncc([C@H](NC(=O)CC(C)C(F)(F)F)C3CC3)cc2n1)C1CCC(F)(F)CC1 (single isomer, unassigned) [Example 123, N—((S)-(7-((R)-Cyclopropyl((R*)-4,4,4-trifluoro-3-methylbutanamido)methyl)imidazo[1,2-b]pyridazin-2-yl)(4,4-difluorocyclohexyl)methyl)-3-methylisoxazole-4-carboxamide]	55	130	
O=C(CC1CC(F)(F)C1)N[C@@H](c1cnn2cc([C@@H](NC(=O)c3nonc3C(O)C3CC3)C3CCC(F)(F)CC3)nc2c1)C1CC1 (single isomer, unassigned) [Example 402, N—((S)-(7-((R)-Cyclopropyl(2-(3,3-difluorocyclobutyl)acetamido)methyl)imidazo[1,2-b]pyridazin-2-yl)(4,4-difluorocyclohexyl)methyl)-4-((S*)-cyclopropyl(hydroxy)methyl)-1,2,5-oxadiazole-3-carboxamide]	110	110	
O=C(CCC(F)(F)F)NC(c1cnn2cc([C@@H](NC(=O)c3ccccc3)C3CCC(F)(F)CC3)nc2c1)C1CC1 (single isomer, unassigned) [Example 12, N—((S)-(7-((R*)-Cyclopropyl(4,4,4-trifluorobutanamido)methyl)imidazo[1,2-b]pyridazin-2-yl)(4,4-difluorocyclohexyl)methyl)benzamide]	85	180	
O=C(CC1CC(F)(F)C1)NC(c1cnn2cc([C@@H](NC(=O)c3cnn(CC(F)(F)F)n3)C3CCC(F)(F)CC3)nc2c1)C1CC1 (stereo in doubt) [Example 28, N—((S)-(7-((R*)-Cyclopropyl(2-(3,3-difluorocyclobutyl)acetamido)methyl)imidazo[1,2-b]pyridazin-2-yl)(4,4-difluorocyclohexyl)methyl)-2-(2,2,2-trifluoroethyl)-2H-1,2,3-triazole-4-carboxamide]	90		390
CC(F)(F)CCn1ncnc1C(=O)N[C@H](c1cn2ncc([C@H](NC(=O)CCC(F)(F)F)C3CC3)cc2n1)C1CCC(F)(F)CC1 [Example 476, N—((S)-(7-((R)-Cyclopropyl(4,4,4-trifluorobutanamido)methyl)imidazo[1,2-b]pyridazin-2-yl)(4,4-difluorocyclohexyl)methyl)-1-(3,3-difluorobutyl)-1H-1,2,4-triazole-5-carboxamide]	130		390
O=C(CCC(F)(F)F)N[C@@H](c1cnn2cc([C@@H](NC(=O)c3ncn(CCC(F)(F)F)n3)C3CCC(F)(F)CC3)nc2c1)C1CC1 [Example 33, N—((S)-(7-((R)-Cyclopropyl(4,4,4-trifluorobutanamido)methyl)imidazo[1,2-b]pyridazin-2-yl)(4,4-difluorocyclohexyl)methyl)-1-(3,3,3-trifluoropropyl)-1H-1,2,4-triazole-3-carboxamide]	4500		> 20000
Cc1nonc1C(=O)N[C@H](c1cn2ncc([C@H](NC(=O)COC(F)(F)F)C3CC3)cc2n1)C1CCC(F)(F)CC1 [Example 277, N—((S)-(7-((R)-Cyclopropyl(2-(trifluoromethoxy)acetamido)methyl)imidazo[1,2-b]pyridazin-2-yl)(4,4-difluorocyclohexyl)methyl)-4-methyl-1,2,5-oxadiazole-3-carboxamide]	180		690
CCOCC(NC(=O)CC1CC(F)(F)C1)c1cnn2cc([C@@H](NC(=O)c3ccnn3C(C)C)C3CCC(F)(F)CC3)nc2c1 (single isomer, unassigned) [Example 529, N—((S)-(7-((S*)-1-(2-(3,3-Difluorocyclobutyl)acetamido)-2-ethoxyethyl)imidazo[1,2-b]pyridazin-2-yl)(4,4-difluorocyclohexyl)methyl)-1-isopropyl-1H-pyrazole-5-carboxamide]	340	120	
Cc1nonc1C(=O)N[C@H](c1cn2ncc([C@H](NC(=O)CC3CC(F)(F)C3(F)F)C3CC3)cc2n1)C1CCC(F)(F)CC1 (single isomer, unassigned) [Example 325, N—((S)-(7-((R)-Cyclopropyl(2-((S*)-2,2,3,3-tetrafluorocyclobutyl)acetamido)methyl)imidazo[1,2-b]pyridazin-2-yl)(4,4-difluorocyclohexyl)methyl)-4-methyl-1,2,5-oxadiazole-3-carboxamide]	91	300	
O=C(CCC(F)(F)F)N[C@@H](c1cnn2cc([C@@H](NC(=O)c3cncc(F)c3)C3CCC(F)(F)CC3)nc2c1)C1CC1 [Example 451, N—((S)-(7-((R)-Cyclopropyl(4,4,4-trifluorobutanamido)methyl)imidazo[1,2-b]pyridazin-2-yl)(4,4-difluorocyclohexyl)methyl)-5-fluoronicotinamide]	120		830
O=C(CCC(F)(F)F)N[C@@H](c1cnn2cc([C@@H](NC(=O)c3ccnc(OC4CCC4)c3)C3CCC(F)(F)CC3)nc2c1)C1CC1 [Example 181, 2-Cyclobutoxy-N—((S)-(7-((R)-cyclopropyl(4,4,4-trifluorobutanamido)methyl)imidazo[1,2-b]pyridazin-2-yl)(4,4-difluorocyclohexyl)methyl)isonicotinamide]	80		460
Cn1nccc1C(=O)N[C@H](c1cn2ncc(C(NC(=O)CC3CC(F)(F)C3)C3CC3)cc2n1)C1CCC(F)(F)CC1 (single isomer, unassigned) [Example 24, N—((S)-(7-((R*)-Cyclopropyl(2-(3,3-difluorocyclobutyl)acetamido)methyl)imidazo[1,2-b]pyridazin-2-yl)(4,4-difluorocyclohexyl)methyl)-1-methyl-1H-pyrazole-5-carboxamide]	63		84
CC(C)Oc1nocc1C(=O)N[C@H](c1cn2ncc([C@H](NC(=O)CC3CC(F)(F)C3)C3CC3)cc2n1)C1CCC(F)(F)CC1 [Example 292, N—((S)-(7-((R)-Cyclopropyl(2-(3,3-difluorocyclobutyl)acetamido)methyl)imidazo[1,2-b]pyridazin-2-yl)(4,4-difluorocyclohexyl)methyl)-3-isopropoxyisoxazole-4-carboxamide]	220		870
O=C(CCC(F)(F)F)N[C@@H](c1cnn2cc([C@@H](NC(=O)c3cccnc3C3CC3)C3CCC(F)(F)CC3)nc2c1)C1CC1 [Example 193, 2-Cyclopropyl-N—((S)-(7-((R)-cyclopropyl(4,4,4-trifluorobutanamido)methyl)imidazo[1,2-b]pyridazin-2-yl)(4,4-difluorocyclohexyl)methyl)nicotinamide]	500		1300
Cc1nonc1C(=O)N[C@H](c1cn2ncc(C(NC(=O)CC3CC(F)(F)C3)C(C)(C)O)cc2n1)C1CCC(F)(F)CC1 (single isomer, unassigned) [Example 445, N—((S)-(7-((R*)-1-(2-(3,3-Difluorocyclobutyl)acetamido)-2-hydroxy-2-methylpropyl)imidazo[1,2-b]pyridazin-2-yl)(4,4-difluorocyclohexyl)methyl)-4-methyl-1,2,5-oxadiazole-3-carboxamide]	5800	> 20000	
CC(=O)N(C)CCn1ncc(C(=O)N[C@H](c2cn3ncc([C@H](NC(=O)CCC(F)(F)F)C4CC4)cc3n2)C2CCC(F)(F)CC2)n1 [Example 114, N—((S)-(7-((R)-Cyclopropyl(4,4,4-trifluorobutanamido)methyl)imidazo[1,2-b]pyridazin-2-yl)(4,4-difluorocyclohexyl)methyl)-2-(2-(N-methylacetamido)ethyl)-2H-1,2,3-triazole-4-carboxamide]	2100		370
O=C(CCC(F)(F)F)N[C@@H](c1cnn2cc([C@@H](NC(=O)c3conc3OCC(F)F)C3CCC(F)(F)CC3)nc2c1)C1CC1 [Example 285, N—((S)-(7-((R)-Cyclopropyl(4,4,4-trifluorobutanamido)methyl)imidazo[1,2-b]pyridazin-2-yl)(4,4-difluorocyclohexyl)methyl)-3-(2,2-difluoroethoxy)isoxazole-4-carboxamide]	120		340
Cc1nonc1C(=O)N[C@H](c1cn2ncc([C@H](NC(=O)CCCC(F)F)C3CC3)cc2n1)C1CCC(F)(F)CC1 [Example 326, N—((S)-(7-((R)-Cyclopropyl(5,5-difluoropentanamido)methyl)imidazo[1,2-b]pyridazin-2-yl)(4,4-difluorocyclohexyl)methyl)-4-methyl-1,2,5-oxadiazole-3-carboxamide]	120		1100
N#CC1(C(NC(=O)CC2(C(F)(F)F)CC2)c2cnn3cc([C@@H](NC(=O)c4nonc4C4CC4)C4CCC(F)(F)CC4)nc3c2)CC1 (single isomer, unassigned) [Example 433, N—((S)-(7-((R*)-(1-Cyanocyclopropyl)(2-(1-(trifluoromethyl)cyclopropyl)acetamido)methyl)imidazo[1,2-b]pyridazin-2-yl)(4,4-difluorocyclohexyl)methyl)-4-cyclopropyl-1,2,5-oxadiazole-3-carboxamide]	1300		> 20000
Cc1nonc1C(=O)N[C@H](c1cn2ncc(C(NC(=O)CCC(F)(F)F)C(F)F)cc2n1)C1CCC(F)(F)CC1 (single isomer, unassigned) [Example 516, N—((S)-(7-((R*)-2,2-Difluoro-1-(4,4,4-trifluorobutanamido)ethyl)imidazo[1,2-b]pyridazin-2-yl)(4,4-difluorocyclohexyl)methyl)-4-methyl-1,2,5-oxadiazole-3-carboxamide]	1900	> 20000	
